A word on the IC50: it is the concentration needed to halve the response being measured.

Here are results for 44 compounds from patent US9718790B2, “Triazine derivative and pharmaceutical composition having an analgesic activity comprising the same” (SHIONOGI & CO., LTD., priority 2010, dated 2017).

Some results are limits rather than exact numbers.

For one assay, the target named is human P2X3 receptor (Homo sapiens (Human), UniProt P56373). As to the kind of experiment: Evaluation of human P2X3 receptor inhibitory activity (Fluo-3 calcium fluorescence, FDSS 3000, ATP stimulation).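 Further: stimulus was 50 nM ATP with fluorescence followed for 3 min, and the response per well was peak post-ATP fluorescence divided by the reading at measurement start.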 Format: cell-based. As to conditions: C6BU-1 cells stably expressing human P2X3 receptor.
human P2X3 receptor, sequence (P56373 whole entry): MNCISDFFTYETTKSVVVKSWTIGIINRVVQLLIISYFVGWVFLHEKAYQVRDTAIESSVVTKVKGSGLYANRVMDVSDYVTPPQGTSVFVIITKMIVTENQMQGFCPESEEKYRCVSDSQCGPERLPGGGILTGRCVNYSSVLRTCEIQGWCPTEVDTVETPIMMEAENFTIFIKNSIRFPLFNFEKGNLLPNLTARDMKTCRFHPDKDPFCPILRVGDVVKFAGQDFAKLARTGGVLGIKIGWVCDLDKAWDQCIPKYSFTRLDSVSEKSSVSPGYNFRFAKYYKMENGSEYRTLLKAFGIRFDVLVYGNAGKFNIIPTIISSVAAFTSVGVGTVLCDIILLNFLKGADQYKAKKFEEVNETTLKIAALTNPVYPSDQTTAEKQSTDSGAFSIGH
Consider `CCn1c(=O)[nH]/c(=N\c2ccc(Oc3ccnc(NC(=O)NC4CC4)c3)cc2)n(Cc2ccc(Cl)cc2)c1=O` [Compound I-2213], for which the IC50 was determined as 2 nM.

Regarding `O=c1[nH]/c(=N\c2ccc3nc(C4CC4)sc3c2)n(Cc2ccc(Cl)cc2)c(=O)n1CCOC1CCCCO1` (centres unmarked) [Compound I-2024], the IC50 came to 5 nM.

As to `CCCc1ccc(/N=c2\[nH]c(=O)n(C[C@H](C)C(=O)OC)c(=O)n2Cc2ccc(Cl)cc2)cc1OC` [Compound I-1306], the IC50 was 80 nM.

Regarding `COC(=O)[C@@H](C)Cn1c(=O)[nH]/c(=N\c2ccc3c(c2)CCC3)n(Cc2ccc(Cl)cc2)c1=O` [Compound I-0769], the IC50 amounted to 207 nM.

Turning to `CC[C@H](CC(=O)O)n1c(=O)[nH]/c(=N\c2ccc(OC(C)C)c(C)c2)n(Cc2ccc(Cl)cc2)c1=O` [Compound I-0799], the IC50 turned out to be 281 nM.

Regarding `CCCOc1ccc(/N=c2\[nH]c(=O)n([C@H](C)[C@H](C)C(=O)OC)c(=O)n2Cc2ccc(C)cc2)cc1` [Compound I-1313], the IC50 worked out at 62 nM.

Regarding `Cc1cc2cc(/N=c3\[nH]c(=O)n(CCCO)c(=O)n3Cc3ccc(Cl)cc3)ccc2o1` [Compound I-2027], the IC50 was found to be 17 nM.

Regarding `COc1cc(/N=c2\[nH]c(=O)n(CC(CO)CO)c(=O)n2Cc2ccc(Cl)cc2)ccc1OC(C)C` [Compound I-1985], the IC50 amounted to 11 nM.

On to `COC(=O)[C@H](C)[C@H](C)n1c(=O)[nH]/c(=N\c2ccc(OC(C)C)c(Br)c2)n(Cc2ccc(C)cc2)c1=O` [Compound I-1307], for which the IC50 stood at 7 nM.

As to `CCOC(=O)C1(Cn2c(=O)[nH]/c(=N\c3ccc(CC(C)C)c(Cl)c3)n(Cc3ccc(C)cc3)c2=O)CC1` [Compound I-1448], the IC50 turned out to be 12 nM.

On to `COC(=O)[C@@H](C)Cn1c(=O)[nH]/c(=N\c2ccc(CC(C)C)c(Cl)c2)n(Cc2ccc(Cl)cc2)c1=O` [Compound I-1370], for which the IC50 was 19 nM.

`CCn1c(=O)[nH]/c(=N\c2ccc(Oc3ccc(C(=O)O)cc3)cc2)n(Cc2ccc(Cl)cc2)c1=O` [Compound I-1969]: the IC50 was found to be 21 nM.

Regarding `CCOC(=O)c1cnc(Oc2ccc(/N=c3\[nH]c(=O)n(CC)c(=O)n3Cc3ccc(Cl)cc3)cc2)s1` [Compound I-2148], the IC50 was found to be 2 nM.

`Cc1[nH]c2ccc(/N=c3\[nH]c(=O)n(CCC(=O)O)c(=O)n3Cc3ccc(Cl)cc3)cc2c1C` [Compound I-1950]: the IC50 was 29 nM.

In the case of `CC(C)Oc1cccc(Cn2c(=O)n(Cc3ccc(Cl)cc3)c(=O)n(C(C)C)c2=O)c1` [Compound I-1292], the IC50 amounted to 445 nM.

For the compound `CCn1c(=O)[nH]/c(=N\c2ccc3oc(C)c(CCO)c3c2)n(Cc2ccc(Cl)cc2)c1=O` [Compound I-2171], the IC50 was found to be 296 nM.

Turning to `CC(C)Oc1ccc(/N=c2\[nH]c(=O)n(CCc3n[nH]c(=O)o3)c(=O)n2Cc2ccc(Cl)cc2)cc1F` [Compound I-0646], the IC50 was 28 nM.

Regarding `CCn1c(=O)[nH]/c(=N\c2ccc(Oc3ccc(C(=O)OC)cc3)cc2)n(Cc2ccc(C)cc2)c1=O` [Compound I-2029], the IC50 amounted to 4 nM.

The assay is the same for the next values; noted with them: C6BU-1 cells stably expressing human P2X3 receptor, Fluo-3 fluorescence, FDSS 3000.
`O=C(Cn1c(=O)[nH]/c(=N\c2ccc(Oc3ccc(O)nc3)cc2)n(Cc2ccc(Cl)cc2)c1=O)NCCO` [Compound I-1902]: the half-inhibitory concentration (IC50) came out at 8 nM.

As for `CC(C)Oc1ccc(/N=c2\[nH]c(=O)n(CC3(CO)COC3)c(=O)n2Cc2ccc(Cl)cc2)cc1Cl` [Compound I-1010], the IC50 turned out to be 4 nM.

As for `CCC[C@H](C)Oc1ccc(/N=c2\[nH]c(=O)n(C[C@H](C)C(=O)OC)c(=O)n2Cc2ccc(C)cc2)cc1` [Compound I-1046], the IC50 worked out at 28 nM.

As for `CCc1oc2ccc(/N=c3\[nH]c(=O)n(CCCC(N)=O)c(=O)n3Cc3ccc(Cl)cc3)cc2c1C` [Compound I-1710], the IC50 amounted to 6 nM.

For `C[C@@H](C(=O)O)[C@H](C)n1c(=O)[nH]/c(=N\c2ccc3nc(-c4ccccc4)sc3c2)n(Cc2ccc(Cl)cc2)c1=O` [Compound I-1829], the IC50 was found to be 92 nM.

Turning to `CCOC(=O)CCn1c(=O)[nH]/c(=N\c2ccc(OC3CC3)c(Cl)c2)n(Cc2ccc(C)cc2)c1=O` [Compound I-1606], the IC50 amounted to 15 nM.

As for `COC(=O)[C@H](C)[C@H](C)n1c(=O)[nH]/c(=N\c2ccc(OC(C)C)c(C)c2)n(Cc2ccc(C)cc2)c1=O` [Compound I-0927], the IC50 was found to be 21 nM.

Consider `NC(=O)c1cc(Oc2ccc(/N=c3\[nH]c(=O)[nH]c(=O)n3Cc3ccc(Cl)cc3)cc2)ccn1` [Compound I-1896], for which the IC50 came out at 14 nM.

For `CCOC(=O)CCn1c(=O)[nH]/c(=N\c2ccc(OC(C)C)c(C)c2)n(Cc2ccc(C)cc2)c1=O` [Compound I-1156], the IC50 was 6 nM.

For the compound `Cc1nc2ccc(/N=c3\[nH]c(=O)n(C)c(=O)n3Cc3ccc(Cl)cc3)cc2s1` [Compound I-1737], the IC50 turned out to be 19 nM.

Turning to `CCC[C@@H](C)Oc1ccc(/N=c2\[nH]c(=O)n(C[C@H](C)C(=O)O)c(=O)n2Cc2ccc(C)cc2)cc1` [Compound I-1061], the IC50 was 174 nM.

Consider `CCn1c(=O)[nH]/c(=N\c2ccc(Oc3ccnc(C(=O)NC)c3)cc2)n(Cc2ccc(Cl)cc2)c1=O` [Compound I-1717], for which the IC50 was 2 nM.

For the compound `Cc1cc(/N=c2\[nH]c(=O)n(CC3CN(C(=O)OC(C)(C)C)C3)c(=O)n2Cc2ccc(Cl)cc2)ccc1OC(C)C` [Compound I-1640], the IC50 was determined as 13 nM.

`Cc1ccc(Cn2c(=O)n(C[C@H](C)C(=O)O)c(=O)[nH]/c2=N\c2ccc(N3CCCCC3)cc2)cc1` [Compound I-1093]: the IC50 was 38 nM.

The assay is the same for the next values; noted with them: human P2X3 receptor, Test Example 1.
Take `CCOc1c(Cl)cc(/N=c2\[nH]c(=O)n(C[C@H](C)C(=O)OC)c(=O)n2Cc2ccc(C)cc2)cc1Cl` [Compound I-1499]: the IC50 came out at 19 nM.

As for `O=C(O)Cn1c(=O)[nH]/c(=N\c2ccc(Oc3ccon3)cc2)n(Cc2ccc(Cl)cc2)c1=O` [Compound I-2504], the IC50 turned out to be 370 nM.

Regarding `CCn1c(=O)[nH]/c(=N\c2ccc(Oc3ncccn3)cc2)n(Cc2ccc(Cl)cc2)c1=O` [Compound I-2362], the IC50 stood at 10 nM.

Take `CCn1c(=O)[nH]/c(=N\c2ccc(Oc3ccnc(CNC)c3)cc2)n(Cc2ccc(Cl)cc2)c1=O` [Compound I-2245]: the IC50 stood at 108 nM.

Turning to `Cc1ccc(Cn2c(=O)n(C)c(=O)[nH]/c2=N\c2ccc(Oc3ccc(C(=O)O)cn3)cc2)cc1` [Compound I-2401], the IC50 was found to be 18 nM.

Turning to `O=c1[nH]/c(=N\c2ccc(Oc3ccc4[nH]cnc4c3)cc2)n(Cc2ccc(Cl)cc2)c(=O)n1CCO` [Compound I-2449], the IC50 turned out to be 9 nM.

Turning to `CCn1c(=O)[nH]/c(=N\c2ccc(Oc3cncc(C(N)=O)n3)cc2)n(Cc2ccc(Cl)cc2)c1=O` [Compound I-2284], the IC50 is < 4 nM.

Turning to `O=c1[nH]/c(=N\c2ccc(Oc3ccon3)cc2)n(Cc2ccc(Cl)cc2)c(=O)n1CCOC1CCCCO1` (centres unmarked) [Compound I-2288], the IC50 stood at 1 nM.

In the case of `CCn1c(=O)[nH]/c(=N\c2ccc(Oc3ccc(C#N)cn3)cc2)n(Cc2ccc(Cl)cc2)c1=O` [Compound I-2306], the IC50 came out at 2 nM.

`COCCn1c(=O)[nH]/c(=N\c2ccc(Oc3cncc(C(=O)O)c3)cc2)n(Cc2ccc(Cl)cc2)c1=O` [Compound I-2547]: the IC50 is 8 nM.

Take `Cn1c(=O)[nH]/c(=N\c2ccc(Oc3cccc(C(N)=O)n3)cc2)n(Cc2ccc(Cl)cc2)c1=O` [Compound I-2274]: the IC50 was found to be 5 nM.

Regarding `CCn1c(=O)[nH]/c(=N\c2ccc(Oc3cccc(CCC(=O)O)c3)cc2)n(Cc2ccc(Cl)cc2)c1=O` [Compound I-2232], the IC50 was 13 nM.
